Drawing on US8017612B2, “Piperazine compound and use thereof as a HCV polymerase inhibitor” (priority 2006, dated 2011), this text covers IC50 for 20 compounds.

Experiment [1] deals with T1, HCV polymerase (NS5B) type 1b (Hepatitis C virus genotype 1b, UniProt P26663).
T1 construct: a region encoding NS5B (J Virol 1991 March, 65(3), 1105-13, 544 amino acids after deletion of 47 amino acids on the C-terminal); 6xHis (C); made in house; host or cells: Escherichia coli
Briefly: Assay of enzyme (HCV polymerase) inhibitory activity, type 1b enzyme. The format is biochemical, HCV BK strain (type 1b). The following applies: HCV polymerase inhibitory activity (IC50), 1b, type 1b enzyme 0.5 μg/ml, 25° C., 60 min. In outline: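 IC50 derived from [3H]UTP incorporation into TCA-insoluble RNA, compared with and without test compound. Reaction (25 °C, 60 min, Tris pH 7.5, 5 mM MgCl2): E. coli-expressed 1b NS5B Δ47 with His tag at 0.5 μg/ml, 5 μg/ml run-off substrate RNA, ATP/GTP/CTP 50 μM, UTP 2 μM.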

Experiment [2] deals with T2, HCV polymerase (NS5B) type 1a (Hepatitis C virus genotype 1a, UniProt P26664).
T2 construct: made in house; host or cells: Escherichia coli (by the 'similar method' of the 1b enzyme)
In words: Assay of enzyme (HCV polymerase) inhibitory activity, type 1a enzyme. Type of experiment: biochemical, HCV type 1a (cloned from the blood of patients). The conditions noted are these: HCV polymerase inhibitory activity (IC50), 1a, type 1a enzyme 1.5 μg/ml, 25° C., 60 min. The method, boiled down:
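Reactions ran 60 min at 25° C in 20 mM Tris-HCl pH 7.5, 5 mM MgCl2, 50 mM NaCl, holding genotype 1a NS5B (1.5 μg/ml, Δ47 C-terminus, 6His), substrate RNA 5 μg/ml, UTP 2 μM with tritiated UTP and other NTPs 50 μM. IC50 derived from incorporated radiolabel in filter-trapped RNA relative to uninhibited reaction.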

In general, IC50 refers to the concentration at which inhibition is half-maximal. Read a high IC50 as weaker potency in that assay.

As for `CCc1ccc(S(=O)(=O)N2CCN(c3cnc(C(=O)O)cn3)C[C@@H]2C(=O)NCc2ccc(C(C)(C)C)cc2)cc1` [Example 524, (R)-3-(4-tert-butyl-benzylcarbamoyl)-4-(4-ethyl-benzenesulfonyl)-3,4,5,6-tetrahydro-2H-[1,2′]bipyrazinyl-5′-carboxylic acid], the concentration for half-maximal inhibition (IC50) in experiment [1] and in experiment [2] was < 100 nM throughout.

On to `CCC(F)(F)c1ccc(CNC(=O)[C@H]2CN(C(=O)Nc3cscn3)CCN2S(=O)(=O)c2ccc(OC(F)(F)F)cc2)cc1` [Example 525, (R)-4-(4-trifluoromethoxy-benzenesulfonyl)-piperazine-1,3-dicarboxylic acid 3-[4-(1,1-difluoro-propyl)-benzylamide] 1-thiazol-4-ylamide], for which the IC50 in experiment [1] and in experiment [2] was < 100 nM each time.

As to `CCC(F)(F)c1ccc(CNC(=O)[C@H]2CN(C(=O)Nc3cc(C)on3)CCN2S(=O)(=O)c2ccc(OC(F)(F)F)cc2)cc1` [Example 526, (R)-4-(4-trifluoromethoxy-benzenesulfonyl)-piperazine-1,3-dicarboxylic acid 3-[4-(1,1-difluoro-propyl)-benzylamide] 1-[(5-methyl-isoxazol-3-yl)-amide]], the IC50 in experiment [1] and in experiment [2] was 100 to 1000 nM each time.

As to `CCC(F)(F)c1ccc(CNC(=O)[C@H]2CN(C(=O)Nc3nc(C)ns3)CCN2S(=O)(=O)c2ccc(OC(F)(F)F)cc2)cc1` [Example 527, (R)-4-(4-trifluoromethoxy-benzenesulfonyl)-piperazine-1,3-dicarboxylic acid 3-[4-(1,1-difluoro-propyl)-benzylamide] 1-[(3-methyl-[1,2,4]thiadiazol-5-yl)-amide]], the IC50 in experiment [1] and in experiment [2] was 100 to 1000 nM in each case.

On to `CCC(F)(F)c1ccc(CNC(=O)[C@H]2CN(C(=O)Nc3cc(C)no3)CCN2S(=O)(=O)c2ccc(OC(F)(F)F)cc2)cc1` [Example 528, (R)-4-(4-trifluoromethoxy-benzenesulfonyl)-piperazine-1,3-dicarboxylic acid 3-[4-(1,1-difluoro-propyl)-benzylamide] 1-[(3-methyl-isoxazol-5-yl)-amide]], for which the values for the IC50 in experiment [1] and in experiment [2] were < 100 nM and 100 to 1000 nM, respectively.

`CC(=O)N1CCN(S(=O)(=O)c2ccc(OC(F)(F)F)cc2)[C@@H](C(=O)NCc2ccc(C(C)(C)C)cc2)C1` [Example 529, (R)-4-acetyl-1-(4-trifluoromethoxy-benzenesulfonyl)-piperazine-2-carboxylic acid 4-tert-butyl-benzylamide]: the IC50 in experiment [1] and in experiment [2] was < 100 nM throughout.

Regarding `CCCc1ccc(CNC(=O)[C@H]2CN(c3cnc(N)cn3)CCN2S(=O)(=O)c2ccc(OC(F)(F)F)cc2)cc1` [Example 530, (R)-5′-amino-4-(4-trifluoromethoxy-benzenesulfonyl)-3,4,5,6-tetrahydro-2H-[1,2′]bipyrazinyl-3-carboxylic acid 4-propyl-benzylamide], the IC50 in experiment [1] is < 100 nM; in experiment [2], 100 to 1000 nM.

For `CCCc1ccc(CNC(=O)[C@H]2CN(c3nc(C)c(CN4CCCC4)s3)CCN2S(=O)(=O)c2ccc(OC(F)(F)F)cc2)cc1` [Example 531, (R)-4-(4-methyl-5-pyrrolidin-1-ylmethyl-thiazol-2-yl)-1-(4-trifluoromethoxy-benzenesulfonyl)-piperazine-2-carboxylic acid 4-propyl-benzylamide], the IC50 in experiment [1] and in experiment [2] was < 100 nM in each case.

`CCOC(=O)Cn1nnc(CC(=O)N2CCN(S(=O)(=O)c3ccc(OC(F)(F)F)cc3)[C@@H](C(=O)NCc3ccc(C(F)(F)CC)cc3)C2)n1` [Example 532, (5-{2-[(R)-3-[4-(1,1-difluoro-propyl)-benzylcarbamoyl]-4-(4-trifluoromethoxy-benzenesulfonyl)-piperazin-1-yl]-2-oxo-ethyl}-tetrazol-2-yl)-acetic acid ethyl ester]: the half-inhibitory concentration (IC50) in experiment [1] and in experiment [2] was < 100 nM each time.

For the compound `CCOC(=O)Cn1nnnc1CC(=O)N1CCN(S(=O)(=O)c2ccc(OC(F)(F)F)cc2)[C@@H](C(=O)NCc2ccc(C(F)(F)CC)cc2)C1` [Example 533, (5-{2-[(R)-3-[4-(1,1-difluoro-propyl)-benzylcarbamoyl]-4-(4-trifluoromethoxy-benzenesulfonyl)-piperazin-1-yl]-2-oxo-ethyl}-tetrazol-1-yl)-acetic acid ethyl ester], the 50% inhibitory concentration (IC50) in experiment [1] and in experiment [2] was > 1000 nM each time.

In the case of `CCCc1ccc(CNC(=O)[C@H]2CN(c3nc4c(s3)CN(C(=O)OCc3ccccc3)CC4)CCN2S(=O)(=O)c2ccc(OC(F)(F)F)cc2)cc1` [Example 534, 2-[(R)-3-(4-propyl-benzylcarbamoyl)-4-(4-trifluoromethoxy-benzenesulfonyl)-piperazin-1-yl]-6,7-dihydro-4H-thiazolo[5,4-c]pyridine-5-carboxylic acid benzyl ester], the IC50 in experiment [1] and in experiment [2] was < 100 nM throughout.

For the compound `CCCc1ccc(S(=O)(=O)N2CCN(c3nc(C(=O)O)c(CO)s3)C[C@@H]2C(=O)NCc2ccc(C(C)C)cc2)cc1` [Example 535, 5-hydroxymethyl-2-[(R)-3-(4-isopropyl-benzylcarbamoyl)-4-(4-propyl-benzenesulfonyl)-piperazin-1-yl]-thiazole-4-carboxylic acid], the IC50 in experiment [1] and in experiment [2] was < 100 nM in each case.

In the case of `CCCc1ccc(CNC(=O)[C@H]2CN(c3nc(C(=O)O)c(COC)s3)CCN2S(=O)(=O)c2ccc(OC(F)(F)F)cc2)cc1` [Example 536, 5-methoxymethyl-2-[(R)-3-(4-propyl-benzylcarbamoyl)-4-(4-trifluoromethoxy-benzenesulfonyl)-piperazin-1-yl]-thiazole-4-carboxylic acid], the 50% inhibitory concentration (IC50) in experiment [1] is < 100 nM; in experiment [2], 100 to 1000 nM.

As to `CCCc1ccc(CNC(=O)[C@H]2CN(c3nc(C(=O)O)c(CO)s3)CCN2S(=O)(=O)c2ccc(OC(F)(F)F)cc2)cc1` [Example 537, 5-hydroxymethyl-2-[(R)-3-(4-propyl-benzylcarbamoyl)-4-(4-trifluoromethoxy-benzenesulfonyl)-piperazin-1-yl]-thiazole-4-carboxylic acid], the IC50 in experiment [1] and in experiment [2] was < 100 nM in each case.

As to `CCCc1ccc(CNC(=O)[C@H]2CN(c3cnc(CN(C)C)cn3)CCN2S(=O)(=O)c2ccc(CC)cc2)cc1` [Example 538, (R)-5′-dimethylaminomethyl-4-(4-ethyl-benzenesulfonyl)-3,4,5,6-tetrahydro-2H-[1,2′]bipyrazinyl-3-carboxylic acid 4-propyl-benzylamide], the concentration for half-maximal inhibition (IC50) in experiment [1] and in experiment [2] was < 100 nM in each case.

Regarding `CCC(F)(F)c1ccc(CNC(=O)[C@H]2CN(C(=O)Nn3cnnc3)CCN2S(=O)(=O)c2ccc(OC(F)(F)F)cc2)cc1` [Example 539, (R)-4-(4-trifluoromethoxy-benzenesulfonyl)-piperazine-1,3-dicarboxylic acid 3-[4-(1,1-difluoro-propyl)-benzylamide] 1-[1,2,4]triazol-4-ylamide], the half-maximal inhibitory concentration (IC50) in experiment [1] and in experiment [2] was 100 to 1000 nM throughout.

With `CCC(F)(F)c1ccc(CNC(=O)[C@H]2CN(C(=O)n3cnc(N)n3)CCN2S(=O)(=O)c2ccc(OC(F)(F)F)cc2)cc1` [Example 540, (R)-4-(3-amino-[1,2,4]triazole-1-carbonyl)-1-(4-trifluoromethoxy-benzenesulfonyl)-piperazine-2-carboxylic acid 4-(1,1-difluoro-propyl)-benzylamide], the IC50 in experiment [1] and in experiment [2] was > 1000 nM in each case.

`CCC(F)(F)c1ccc(CNC(=O)[C@H]2CN(C(=O)Cn3nnnc3C(C)C)CCN2S(=O)(=O)c2ccc(OC(F)(F)F)cc2)cc1` [Example 541, (R)-4-[2-(5-isopropyl-tetrazol-1-yl)-acetyl]-1-(4-trifluoromethoxy-benzenesulfonyl)-piperazine-2-carboxylic acid 4-(1,1-difluoro-propyl)-benzylamide]: the IC50 in experiment [1] and in experiment [2] was 100 to 1000 nM in each case.

Consider `CCC(F)(F)c1ccc(CNC(=O)[C@H]2CN(C(=O)Cn3nnc(C(C)C)n3)CCN2S(=O)(=O)c2ccc(OC(F)(F)F)cc2)cc1` [Example 542, (R)-4-[2-(5-isopropyl-tetrazol-2-yl)-acetyl]-1-(4-trifluoromethoxy-benzenesulfonyl)-piperazine-2-carboxylic acid 4-(1,1-difluoro-propyl)-benzylamide], for which the IC50 in experiment [1] and in experiment [2] was < 100 nM each time.

On to `CCC(F)(F)c1ccc(CNC(=O)[C@H]2CN(C(=O)Cn3nnc(CC(=O)N4CCOCC4)n3)CCN2S(=O)(=O)c2ccc(OC(F)(F)F)cc2)cc1` [Example 543, (R)-4-{2-[5-(2-morpholin-4-yl-2-oxo-ethyl)-tetrazol-2-yl]-acetyl}-1-(4-trifluoromethoxy-benzenesulfonyl)-piperazine-2-carboxylic acid 4-(1,1-difluoro-propyl)-benzylamide], for which the IC50 in experiment [1] and in experiment [2] was < 100 nM each time.
